Laboratory results taken from patent US12053506B2, “Romo1-derived antimicrobial peptides and variants thereof” (priority 2019, dated 2024).
No end group written: not given here.

Tests used:
[1] = test system: Staphylococcus aureus (ATCC 29213); assay type: cell-based; conditions: for MBC value (μg/ml) against Staphylococcus aureus: ATCC 29213, 1 h
Summary of the method: (§1)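 Bacteria grown in 3% TSB at 37° C, diluted in 10 mM sodium phosphate/1% TSB to 1×10^5 CFU/ml in wells, exposed to peptides (0–300 μg/ml) for 1 h at 37° C. Mixtures plated on TS agar for 18 h at 37° C; MBC is the lowest concentration giving no colonies.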

[2] = test system: Pseudomonas aeruginosa (ATCC 27853); assay type: cell-based; conditions: for MBC value (μg/ml) against Pseudomonas aeruginosa: ATCC 27853, 1 h
Summary of the method: as §1

[3] = test system: Pseudomonas aeruginosa and Staphylococcus aureus; assay: MBC assay, antibacterial activity of Romo1-derived peptides compared in words; assay type: cell-based; conditions: Table 1 peptides
Text: Romo1 protein comprises two α-helices. The present inventors synthesized the α-helix 2 region having both hydrophilicity and hydrophobicity, and evaluated the antibacterial activity thereof using minimum bactericidal concentration (MBC) assay. The α-helix 2 region was named KU-5279 (the 52-79 amino acid region of Romo1 protein). Then, in order to identify peptides that are beneficial for human application and have excellent antibacterial activity, the present inventors synthesized several peptides comprising a sequence of contiguous amino acids starting at any amino acid selected from the 52-79 amino acid region of Romo1 protein, and comparatively evaluated the antibacterial activities of the peptides by minimum bactericidal concentration assay (See Table 1 below for information on each peptide). Evaluation of the antibacterial activity of each peptide by minimum bactericidal concentration assay was specifically performed as follows. First, each of Pseudomonas aeruginosa (ATCC 27853) and Staphylococcus aureus (ATCC 29213) was cultured in 3% (w/v) TSB (Tryptic Soy Broth) liquid medium at 37° C. and 200 rpm for 4 hours, and then further cultured under the same conditions for 3 hours to a concentration of 5×10^6 CFU/ml. […]

[4] = test system: Multidrug-resistant K. pneumoniae; conditions: multidrug-resistant, 4 h
Description: (§2) The minimum bactericidal concentration assay was the same as the method used in Example 1.
(§3) Specifically, each type of bacteria was cultured in 3% (w/v) TSB (Tryptic Soy Broth) liquid medium at 37° C. and 200 rpm for 4 hours, and then further cultured under the same conditions for 3 hours to a concentration of 5×10^6 CFU/ml. Strain solutions were prepared by diluting each of the […] of 2×10^5 CFU/ml.
(§4) Then, the KU-5878 peptide at varying concentrations (0 μg/ml to 300 μg/ml) was dispensed into each well of a 96-well microplate, and 100 μl (1×10^5 CFU/ml) of each of the prepared strain solutions was added thereto, mixed therewith, and allowed to react with the peptide in an incubator at 37° C. for 1 hour.
(§5) In addition, 10 μl of each reaction solution of the peptide and the strain was plated on the TS agar plate at a constant size, and incubated in an incubator at 37° C. for 18 hours, and then colony formation on the plate was checked.
(§6) Meanwhile, the multidrug-resistant Pseudomonas aeruginosa, multidrug-resistant Acinetobacter and multidrug-resistant Klebsiella in Table 2 below were bacteria isolated from patients at Korea University Anam Hospital. […] Then, these bacteria were used in the experiment.

[5] = test system: Multidrug-resistant A. baumannii; conditions: multidrug-resistant, 4 h
Description: as §2, §3, §4, §5, §6

[6] = test system: Streptococcus pneumoniae (NCCP 14585); assay type: cell-based; conditions: NCCP 14585, 4 h
Description: as §2, §3, §4
(§7) In addition, 10 μl of each reaction solution of the peptide and the strain was plated on the TS agar plate at a constant size, and incubated in an incubator at 37° C. for 18 hours, and then colony formation on the plate was checked. The minimum bactericidal concentration was defined as the minimum concentration of the peptide at which no colony was formed, and the experimental results are shown in Table 2 below.

[7] = test system: methicillin-resistant Staphylococcus aureus (ATCC 33591); conditions: ATCC 33591, 4 h
[8] = test system: Vancomycin-resistant S. aureus (NCCP 15872); assay type: cell-based, Staphylococcus aureus; conditions: Vancomycin-resistant (NCCP 15872, 4 h)
Description: as §2, §3, §4, §7

[9] = test system: Klebsiella pneumoniae (ATCC 13883); assay: Minimum bactericidal concentration (MBC) assay; assay type: cell-based
Description: as §2, §3, §4, §7

[10] = test system: Acinetobacter baumannii (ATCC 19606); assay: Minimum bactericidal concentration (MBC) assay; assay type: cell-based
Description: as §2, §3, §4, §7

[11] = test system: Escherichia coli (ATCC 25922); assay: Minimum bactericidal concentration (MBC) assay; assay type: cell-based
Description: as §2, §3, §4, §7

[12] = test system: Bacillus subtilis (ATCC 6633); assay: Minimum bactericidal concentration (MBC) assay; assay type: cell-based
Description: as §2, §3, §4, §7

[13] = test system: Streptomyces sindenensis (ATCC 12392); assay: Minimum bactericidal concentration (MBC) assay; assay type: cell-based
Description: as §2, §3, §4, §7

[14] = test system: Enterococcus faecalis (ATCC 19433); assay: Minimum bactericidal concentration (MBC) assay; assay type: cell-based
Description: as §2, §3, §4, §7

[15] = test system: Enterobacter aerogenes (ATCC 13048); assay: Minimum bactericidal concentration (MBC) assay; assay type: cell-based
Description: as §2, §3, §4, §7

[16] = test system: Enterococcus faecium (ATCC 19434); assay: Minimum bactericidal concentration (MBC) assay; assay type: cell-based
Description: as §2, §3, §4, §7

[17] = test system: mouse red blood cells; assay type: cell-based
Description: Red blood cells were diluted with PBS, centrifuged 3 times at 900 g for 10 minutes, and washed. 100 μl of the diluted red blood cell solution (10% v/v PBS) was dispensed into each well of a 96-well microplate, and KU-5878, KU-5878-K4, KU-5878-K4-D, melittin, magainin 2 or daptomycin was added to each well which was then filled with PBS to 200 μl, followed by reaction by incubation at 37° C. for 1 hour. Then, the supernatant of the reaction solution was separated, and the absorbance at a wavelength of 550 nm was measured using a spectrophotometer. As control, PBS and 0.1% Triton X-100 (Triton X-100) solution were used.
Based on the results of measurement of the absorbance, the degree of red blood cell destruction was calculated according to Equation 1 below, and the results of the calculation are shown in FIG. 6. The % intact RBC=100(%)−[(absorbance of peptide-treated red blood cell solution−absorbance of PBS-treated red blood cell solution)/(absorbance of Triton X-100-treated red blood cell solution−absorbance of PBS-treated red blood cell solution)×100(%)] [Equation 1]

[18] = test system: multidrug-resistant Pseudomonas aeruginosa; conditions: 4 h
Description: First, each of Pseudomonas aeruginosa (ATCC 27853) and Staphylococcus aureus (ATCC 29213) was cultured in 3% (w/v) TSB (Tryptic Soy Broth) liquid medium at 37° C. and 200 rpm for 4 hours, and then further cultured under the same conditions for 3 hours to a concentration of 5×10^6 CFU/ml. Strain solutions were prepared by diluting each of the further cultured strains with SP (sodium phosphate; 10 mM sodium phosphate, 1% TSB) buffer to a final concentration of 2×10^5 CFU/ml.
Then, each peptide at varying concentrations (0 μg/ml to 300 μg/ml) was dispensed into each well of a 96-well microplate, and 100 μl (1×10^5 CFU/ml) of each of the prepared strain solutions was added thereto, mixed therewith, and allowed to react with the peptide in an incubator at 37° C. for 1 hour.
In addition, 30 g/L of TS (tryptic soy) and 15 g/L of agar were dissolved in distilled water and sterilized, and then 25 ml of the solution was poured onto a 100 mm round plate and solidified at room temperature for one day or more, thereby preparing a TS agar plate. 10 μl of each reaction solution of the peptide and the strain was plated on the TS agar plate at a constant size, and incubated in an incubator at 37° C. for 18 hours, and then colony formation on the plate was checked.
as §3, §4, §5, §6

[19] = test system: Vancomycin-resistant E. faecium (NCCP 11522); assay type: cell-based, Enterococcus faecium; conditions: Vancomycin-resistant (NCCP 11522, 4 h)
Description: as §2, §3, §4, §7

For “CLRIGMRGRELM [pCM12, reference compound]”, the “MBC value (μg/ml) against Staphylococcus aureus” value [1] was greater than 300 µg/mL, the “MBC value (μg/ml) against Pseudomonas aeruginosa” value [2] was greater than 300 µg/mL and the “antibacterial activity by MBC assay, in words” value [3] was “low bactericidal activity”.

For KKMMKKGGKFGTFMAIGMGIR [KU-5878-K4], the “MBC (μg/ml) value against Staphylococcus aureus” value ([1]; ATCC 29213) was 3 µg/mL, the “MBC value (μg/ml) against Staphylococcus aureus” value [1] was 3 µg/mL and the “MBC (μg/ml) value against Pseudomonas aeruginosa” value ([2]; ATCC 27853) was 4 µg/mL. The “MBC value (μg/ml) against Pseudomonas aeruginosa” value [2] was 4 µg/mL, the “MBC value (μg/ml), Multidrug-resistant K. pneumoniae” value [4] was 5 µg/mL and the “MBC value (μg/ml), Multidrug-resistant A. baumannii” value [5] was 4 µg/mL. The “MBC value (μg/ml), Streptococcus pneumoniae” value [6] was 4 µg/mL, the “MBC value (μg/ml) against methicillin-resistant Staphylococcus aureus” value [7] was 5 µg/mL and the “MBC value (μg/ml), Vancomycin-resistant S. aureus” value [8] was 6 µg/mL. The “MBC value (μg/ml), Klebsiella pneumoniae” value [9] was 5 µg/mL, the “MBC value (μg/ml), Acinetobacter baumannii” value [10] was 4 µg/mL and the “MBC value (μg/ml), Escherichia coli” value [11] was 5 µg/mL. The “MBC value (μg/ml), Bacillus subtilis” value [12] was 5 µg/mL, the “MBC value (μg/ml), Streptomyces sindenensis” value [13] was 5 µg/mL and the “MBC value (μg/ml), Enterococcus faecalis” value [14] was 5 µg/mL. For the same sequence, the “MBC value (μg/ml), Enterobacter aerogenes” value [15] was 5 µg/mL, the “MBC value (μg/ml), Enterococcus faecium” value [16] was 5 µg/mL and the “hemolysis of red blood cells” value [17] was “little hemolysis of red blood cells”. The “MBC value (μg/ml) against multidrug-resistant Pseudomonas aeruginosa” value [18] was 5 µg/mL and the “MBC value (μg/ml), Vancomycin-resistant E. faecium” value [19] was 5 µg/mL.
